In patent US11045435B2, “Methods for treating ocular diseases” (NATUREWISE BIOTECH & MEDICALS CORPORATION, priority 2016, dated 2021):

Assays:
ARPE-19 cells [1] = experiment: Hypoxia-induced injury in ARPE-19 cells (MTT); type: cell-based, human; settings: 72 h
Experimental: (§1) MTT assay was used to measure the viability of ARPE-19 cells and HUVECs. 2×10^5 ARPE-19 cells or 5×10^4 HUVECs were seeded in 96-well plates ([…]) and allowed to grow overnight. Negative control was prepared by adding 100 μl medium without cells. The cells were then treated with fresh medium with COMPOUND I (0.03, 0.1, 0.3, 1, 3 and 10 μg/ml) and/or oxidants (NaIO3, H2O2, t-BHP and NaN3) for 12, 24, or 72 hours (200 μl/well). The vehicle control group was treated with vehicle. 20 μl MTT (5 mg/ml) was added to wells, and incubated for another 4 h. After incubation, the medium was discarded and 100 μl DMSO was added to solubilize formazan produced from MTT by the viable cells. Absorbance was measured at 570 nm using a microplate reader (Bio-Rad Laboratories, Inc., CA). Cells viability was calculated according to the following formula: Viability of cells (%)=(absorbance in tested sample−absorbance in negative control)/(absorbance in vehicle control−absorbance in negative control)×100%.
Cells were allowed to attach overnight, and then exposed to COMPOUND I or vehicle under hypoxic condition for 72 h. Hypoxic conditions (1% O2, 5% CO2 and 94% N2) were maintained by using a temperature and humidity controlled environmental C-chamber by O2 and CO2 controllers (Proox Model 110 and Pro CO2 model 120, Biospherix Ltd., Redfield, N.Y., USA) with N2 and CO2 gas sources.

ARPE-19 cells [2] = experiment: NaIO3-induced injury in ARPE-19 cells (MTT); type: cell-based, human; settings: 10 μg/ml; 72 h
Experimental: as §1

VEGF = VEGF levels in retina, Western Blot, streptozotocin-induced diabetic retinopathy; type: in vivo, Sprague-Dawley female rats
mouse model of CNV = experiment: Laser-induced CNV mouse model (FP, FFA, OCT); type: in vivo, C57BL/6J mice
Experimental: Male C57BL/6J mice (BioLASCO Taiwan Co.) were maintained within the Animal Center at Taipei Medical University (TMU) and the CNV study was performed in accordance with ARVO statement and the experimental protocols were approved by the Institutional Animal Care and Use Committee of TMU (LAC-2017-0130). To create CNV, mice were anesthetized by injection of Balanzine (10% xylazine) (10 mg/kg) and Ketamine (80 mg/kg). The rupture of Bruch's membrane-choroid was achieved by laser photocoagulation (Micron III system, Phoenix Research Laboratories, Pleasanton, Calif.) using CNV laser burns of four spots (0.1-second duration, 250 mW) approximately two disc-diameters away from the optic disc. […]
The OCT module of the Micron III (Phoenix Research Laboratories, Pleasanton, Calif.) retinal imaging microscope was used to obtain images from retinal layers. […] Three retinal layers were defined and measured in the C57BL/6 mice included in this study: the inner layer, which comprises the retinal nerve fiber layer (RNFL), the ganglion cell layer (GCL), and the inner plexiform layer (IPL); the middle layer, which comprises the inner nuclear layer (INL), the outer plexiform layer (OPL), the outer nuclear layer (ONL), and the outer limiting membrane (OLM); and the outer layer, which comprises the inner and outer segments (IS/OS) of the photoreceptors and the retinal pigment epithelium.

COc1ccc(COc2c(/C=C/C(=O)NO)ccc(OC)c2CC=C(C)C)cc1 [COMPOUND I]
effect on cells in hypoxic condition (ARPE-19 cells [1]; 0.03 μg/ml to 10 μg/ml except 3 μg/ml): had no effect
increase of viability in hypoxic condition (ARPE-19 cells [1]; 3 μg/ml, 1% O2): 22%
effect on viability in NaIO3-induced injury (ARPE-19 cells [2]): significantly enhanced the viability
VEGF level in diabetic eyes, in words (VEGF; 0.5% and 1%): markedly suppressed
VEGF level (Western Blot), DR animals as 100% (VEGF; 0.5% eye drops tid 6 weeks): 77%
VEGF level (Western Blot), DR rats as 100% (VEGF; 1.0% eye drops tid 6 weeks): 50%
leaky area (FFA) (mouse model of CNV; 25 mg/kg/d oral for 7 or 28 days): significantly reduced
tissue hyperplasia resulted from laser damage (mouse model of CNV; 25 mg/kg/d oral, day 7 and day 28): ameliorated
